From US9469642B2, “Purinone compounds as kinase inhibitors” (Pharmacyclics LLC, priority 2012, dated 2016) come the findings set out here.

Holding throughout (assay type): biochemical
In one test the target is T1, BTK (Homo sapiens, UniProt Q06187).
T1 construct: purified from insect cells as a full-length construct containing a N-terminal 6×-His tag; His6 (N); host or cells: insect cells (baculovirus Sf21)
Nature of the test: Btk in vitro inhibitory activity (kinase assay by one of Methods A, B or C). The method in brief: (§1)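 BTK (0.5 nM) and LCK (6 nM) by TR-FRET, ATP at Km, biotinylated peptide, pH 7.4, 1 h; Ki(app) converted to IC50. Alternatively, full-length His6-BTK (1 nM) by mobility shift, 16 μM ATP (Km), 1 μM FAM peptide, pH 7.5, 1 h; IC50 from 12-point 4-parameter fit. Radiometric filter-binding option also used.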

In another test the target is EGFR (Homo sapiens, UniProt P00533). Nature of the test: Kinase panel inhibition, EGFR (one of the methods of Example 76a, 76b, 76c). The method in brief:
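Kinase activity was measured by TR-FRET in 50 μL reactions in 96-well plates. Enzyme, inhibitor, ATP at its Km and a biotinylated peptide substrate were incubated for one hour at pH 7.4 in buffer containing 20 mM Tris, 50 mM NaCl, MgCl2, MnCl2, 1 mM DTT, 0.1 mM EDTA, 0.01% bovine serum albumin, 0.005% Tween-20 and 10% DMSO. Reactions were stopped with EDTA in Lance buffer. Streptavidin-APC and Eu-labeled p-Tyr100 antibody were added for one hour. The 665/615 nm emission ratio gave activity. IC50 was derived from Ki(app) fitted with BatchKi.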

A further test deals with LCK (Homo sapiens, UniProt P06239). Nature of the test: Kinase panel inhibition, LCK (one of the methods of Example 76a, 76b, 76c). The method in brief:
as §1

T1 sequence (Q06187 whole entry): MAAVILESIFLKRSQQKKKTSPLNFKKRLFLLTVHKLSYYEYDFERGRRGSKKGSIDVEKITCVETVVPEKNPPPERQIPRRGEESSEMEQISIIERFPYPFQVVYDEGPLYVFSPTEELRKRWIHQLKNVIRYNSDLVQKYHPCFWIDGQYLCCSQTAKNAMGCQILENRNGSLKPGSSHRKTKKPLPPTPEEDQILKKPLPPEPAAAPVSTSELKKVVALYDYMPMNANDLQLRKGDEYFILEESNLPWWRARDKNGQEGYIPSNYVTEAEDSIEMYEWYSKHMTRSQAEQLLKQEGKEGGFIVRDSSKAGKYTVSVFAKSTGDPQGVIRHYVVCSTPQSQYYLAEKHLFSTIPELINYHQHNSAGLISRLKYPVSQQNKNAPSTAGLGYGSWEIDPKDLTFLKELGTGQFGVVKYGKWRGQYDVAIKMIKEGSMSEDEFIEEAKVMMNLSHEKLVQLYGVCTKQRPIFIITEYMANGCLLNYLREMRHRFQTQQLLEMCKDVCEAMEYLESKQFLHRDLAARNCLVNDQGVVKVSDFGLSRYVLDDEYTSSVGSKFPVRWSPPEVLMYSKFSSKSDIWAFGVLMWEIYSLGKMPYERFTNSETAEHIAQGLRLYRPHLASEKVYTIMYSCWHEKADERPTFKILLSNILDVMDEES
EGFR, sequence (P00533 25-1210, species assumed): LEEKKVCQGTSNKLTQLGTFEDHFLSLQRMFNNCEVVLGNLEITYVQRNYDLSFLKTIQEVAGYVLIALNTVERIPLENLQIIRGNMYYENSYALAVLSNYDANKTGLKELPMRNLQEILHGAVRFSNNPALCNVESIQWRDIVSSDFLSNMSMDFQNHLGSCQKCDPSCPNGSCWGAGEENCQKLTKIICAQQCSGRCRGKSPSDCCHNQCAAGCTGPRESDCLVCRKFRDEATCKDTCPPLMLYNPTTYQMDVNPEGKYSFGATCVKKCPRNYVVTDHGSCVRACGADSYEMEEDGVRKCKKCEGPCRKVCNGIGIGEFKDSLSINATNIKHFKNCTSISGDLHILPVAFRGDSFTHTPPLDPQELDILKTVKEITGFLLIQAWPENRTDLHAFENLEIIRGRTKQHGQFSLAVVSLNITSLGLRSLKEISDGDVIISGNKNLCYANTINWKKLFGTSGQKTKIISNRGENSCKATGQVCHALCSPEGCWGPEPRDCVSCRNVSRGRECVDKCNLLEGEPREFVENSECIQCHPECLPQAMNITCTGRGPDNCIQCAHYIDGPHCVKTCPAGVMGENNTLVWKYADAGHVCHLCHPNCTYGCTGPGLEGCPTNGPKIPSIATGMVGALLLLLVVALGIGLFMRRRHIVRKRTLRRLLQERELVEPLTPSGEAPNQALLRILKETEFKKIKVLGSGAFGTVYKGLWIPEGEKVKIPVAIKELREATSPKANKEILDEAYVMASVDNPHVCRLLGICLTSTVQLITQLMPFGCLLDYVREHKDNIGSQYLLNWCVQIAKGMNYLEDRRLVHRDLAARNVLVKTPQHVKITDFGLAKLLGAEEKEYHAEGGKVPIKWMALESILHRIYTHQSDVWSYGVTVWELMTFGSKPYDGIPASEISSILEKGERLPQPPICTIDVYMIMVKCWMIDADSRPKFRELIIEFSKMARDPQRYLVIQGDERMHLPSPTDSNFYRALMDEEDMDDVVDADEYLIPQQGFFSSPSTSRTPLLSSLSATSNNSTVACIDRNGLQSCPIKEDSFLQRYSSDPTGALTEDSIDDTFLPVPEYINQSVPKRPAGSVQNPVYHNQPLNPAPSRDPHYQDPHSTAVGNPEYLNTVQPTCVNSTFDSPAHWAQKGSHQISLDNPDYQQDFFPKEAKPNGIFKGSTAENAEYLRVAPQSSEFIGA
LCK, sequence (P06239 whole entry, species assumed): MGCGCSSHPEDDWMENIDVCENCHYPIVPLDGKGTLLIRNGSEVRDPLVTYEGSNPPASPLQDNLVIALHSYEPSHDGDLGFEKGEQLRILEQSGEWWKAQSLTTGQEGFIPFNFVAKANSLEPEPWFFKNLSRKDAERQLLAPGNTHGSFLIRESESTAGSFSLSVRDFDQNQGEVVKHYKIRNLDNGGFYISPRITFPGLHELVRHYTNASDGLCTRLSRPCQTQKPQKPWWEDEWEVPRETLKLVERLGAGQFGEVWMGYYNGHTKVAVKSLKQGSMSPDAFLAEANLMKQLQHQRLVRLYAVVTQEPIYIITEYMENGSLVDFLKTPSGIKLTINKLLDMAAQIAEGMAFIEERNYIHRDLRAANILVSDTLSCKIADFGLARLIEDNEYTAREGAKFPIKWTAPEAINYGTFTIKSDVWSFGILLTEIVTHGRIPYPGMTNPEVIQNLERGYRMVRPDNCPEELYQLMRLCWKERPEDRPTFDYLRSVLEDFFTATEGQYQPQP

With `C=CC(=O)Nc1cccc(-n2c(=O)n(-c3ccc(Oc4ccccc4)cc3)c3c(N)ncnc32)c1` [Compound 11, N-(3-(6-amino-8-oxo-7-(4-phenoxyphenyl)-7H-purin-9(8H)-yl)phenyl)acrylamide], the IC50 on BTK, at EGFR and against LCK was less than 100 nM each time.

Consider `CN(C(=O)/C=C/CN(C)C1CC1)c1cccc(-n2c(=O)n(-c3ccc(Oc4cccc(F)c4)cc3)c3c(N)ncnc32)c1` [Compound 151, (E)-N-(3-(6-amino-7-(4-(3-fluorophenoxy)phenyl)-8-oxo-7H-purin-9(8H)-yl)phenyl)-4-(cyclopropyl(methyl)amino)-N-methylbut-2-enamide], for which the IC50 (commonly the midpoint of a concentration-inhibition curve) against BTK was less than 100 nM; against EGFR it was 1000 to 10000 nM; on LCK it was 1000 to 10000 nM.

`CN(C(=O)/C=C/CN(C)C1CC1)c1ccc(-n2c(=O)n(-c3ccc(Oc4ccccc4)cc3)c3c(N)ncnc32)cc1` [Compound 44, (E)-N-(4-(6-amino-8-oxo-7-(4-phenoxyphenyl)-7H-purin-9(8H)-yl)phenyl)-4-(cyclopropyl(methyl)amino)-N-methylbut-2-enamide]: the values for the 50% inhibitory concentration (IC50) at BTK, on EGFR and at LCK were less than 100 nM, 1000 to 10000 nM and 100 to 1000 nM, respectively.

Turning to `C=CC(=O)N(C)c1ccc(-n2c(=O)n(-c3ccc(C)c(OC)c3)c3c(N)ncnc32)cc1` [Compound 55, N-(4-(6-amino-7-(3-methoxy-4-methylphenyl)-8-oxo-7H-purin-9(8H)-yl)phenyl)-N-methylacrylamide], the results for the IC50 against BTK, against EGFR and against LCK were less than 100 nM, 1000 to 10000 nM and 1000 to 10000 nM, respectively.

For the compound `CN(C(=O)/C=C/CNC1CC1)c1cccc(-n2c(=O)n(-c3ccc(Oc4ccccc4)cc3)c3c(N)ncnc32)c1` [Compound 118, (E)-N-(3-(6-amino-8-oxo-7-(4-phenoxyphenyl)-7H-purin-9(8H)-yl)phenyl)-4-(cyclopropylamino)-N-methylbut-2-enamide], the IC50 was less than 100 nM against BTK, 100 to 1000 nM on EGFR and 100 to 1000 nM against LCK.

On to `CN(C(=O)/C=C/CN(C)C1CCC1)c1ccc(-n2c(=O)n(-c3ccc(Oc4ccccc4)cc3)c3c(N)ncnc32)cc1` [Compound 45, (E)-N-(4-(6-amino-8-oxo-7-(4-phenoxyphenyl)-7H-purin-9(8H)-yl)phenyl)-4-(cyclobutyl(methyl)amino)-N-methylbut-2-enamide], for which the IC50 is less than 100 nM against BTK, 1000 to 10000 nM against EGFR and 100 to 1000 nM against LCK.

For the compound `CN(C/C=C/C(=O)Nc1cccc(-n2c(=O)n(-c3ccc(Oc4ccccc4)cc3)c3c(N)ncnc32)c1)C1CCC1` [Compound 10, (E)-N-(3-(6-amino-8-oxo-7-(4-phenoxyphenyl)-7H-purin-9(8H)-yl)phenyl)-4-(cyclobutyl(methyl)amino)but-2-enamide], the 50% inhibitory concentration (IC50) at BTK was less than 100 nM; on EGFR, less than 100 nM; on LCK it was 100 to 1000 nM.

Take `CN(C/C=C/C(=O)N1CC[C@@H](n2c(=O)n(-c3ccc(Oc4ccccc4)cc3)c3c(N)ncnc32)C1)C1CCC1` [Compound 64, (R,E)-6-amino-9-(1-(4-(cyclobutyl(methyl)amino)but-2-enoyl)pyrrolidin-3-yl)-7-(4-phenoxyphenyl)-7H-purin-8(9H)-one]: the results for the IC50 against BTK, at EGFR and against LCK were less than 100 nM, 1000 to 10000 nM and 100 to 1000 nM, respectively.

Regarding `Cc1cc(Oc2ccccc2)ccc1-n1c(=O)n(-c2cccc(N(C)C(=O)/C=C/CN(C)C3CC3)c2)c2ncnc(N)c21` [Compound 290, (E)-N-(3-(6-amino-7-(2-methyl-4-phenoxyphenyl)-8-oxo-7H-purin-9(8H)-yl)phenyl)-4-(cyclopropyl(methyl)amino)-N-methylbut-2-enamide], the IC50 was less than 100 nM on BTK, 1000 to 10000 nM on EGFR and 1000 to 10000 nM against LCK.

Take `COCCOc1ccc(-n2c(=O)n(-c3ccc(C)c(OC)c3)c3c(N)ncnc32)cc1NC(=O)/C=C/CN(C)C` [Compound 112, (E)-N-(5-(6-amino-7-(3-methoxy-4-methylphenyl)-8-oxo-7H-purin-9(8H)-yl)-2-(2-methoxyethoxy)phenyl)-4-(dimethylamino)but-2-enamide]: the IC50 against BTK is less than 100 nM; at EGFR, 1000 to 10000 nM; at LCK it was 1000 to 10000 nM.

In the case of `CN(C)C/C=C/C(=O)N(C)c1ccc(-n2c(=O)n(-c3ccc(Cl)cc3)c3c(N)ncnc32)cc1` [Compound 48, (E)-N-(4-(6-amino-7-(4-chlorophenyl)-8-oxo-7H-purin-9(8H)-yl)phenyl)-4-(dimethylamino)-N-methylbut-2-enamide], the IC50 is 100 to 1000 nM on BTK, more than 10000 nM against EGFR and 1000 to 10000 nM on LCK.

`CN(C)C/C=C/C(=O)N(C)c1ccc(-n2c(=O)n(-c3ccc(Oc4ccccc4)cc3)c3c(N)ncnc32)cc1` [Compound 43, (E)-N-(4-(6-amino-8-oxo-7-(4-phenoxyphenyl)-7H-purin-9(8H)-yl)phenyl)-4-(dimethylamino)-N-methylbut-2-enamide]: the IC50 on BTK was less than 100 nM; at EGFR it was 1000 to 10000 nM; at LCK it was 100 to 1000 nM.

For `CN(C(=O)/C=C/CN(C)C1CC1)c1cccc(-n2c(=O)n(-c3ccc(OCc4ccccc4)cc3)c3c(N)ncnc32)c1` [Compound 234, (E)-N-(3-(6-amino-7-(4-(benzyloxy)phenyl)-8-oxo-7H-purin-9(8H)-yl)phenyl)-4-(cyclopropyl(methyl)amino)-N-methylbut-2-enamide], the 50% inhibitory concentration (IC50) against BTK is less than 100 nM; against EGFR, 1000 to 10000 nM; on LCK, 1000 to 10000 nM.
